Measured values: patent US20100120778A1, “QUINOXALINE-BASED LXR MODULATORS” (Wyeth, priority 2008, published 2010)

Biological target: T1, human LXRβ (Homo sapiens, UniProt P55055)
T1 construct: biotin (biotinylated); made in house; host or cells: E. coli
T1 sequence (P55055 1-460): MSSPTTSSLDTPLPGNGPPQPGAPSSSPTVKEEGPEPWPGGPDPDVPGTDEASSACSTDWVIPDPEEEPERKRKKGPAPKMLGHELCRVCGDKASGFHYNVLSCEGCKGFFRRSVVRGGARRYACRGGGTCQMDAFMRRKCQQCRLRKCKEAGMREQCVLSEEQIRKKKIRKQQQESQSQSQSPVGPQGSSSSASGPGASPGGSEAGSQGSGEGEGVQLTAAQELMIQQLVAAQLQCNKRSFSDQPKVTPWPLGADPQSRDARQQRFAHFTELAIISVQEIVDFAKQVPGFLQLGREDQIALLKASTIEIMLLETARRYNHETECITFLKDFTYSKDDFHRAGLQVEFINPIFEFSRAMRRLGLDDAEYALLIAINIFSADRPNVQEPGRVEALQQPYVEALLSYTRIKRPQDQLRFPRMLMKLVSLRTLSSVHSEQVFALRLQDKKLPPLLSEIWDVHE
Assay: Ligand-binding test procedure for human LXRβ (3H T0901317 tracer, flash plates)
Settings: biotinylated hLXRβ, tracer 3H T0901317, +4° C. over night
Protocol: I. Ligand-Binding Test Procedure for Human LXRβ.
Receptor source: E. coli extracted from cells expressing biotinylated hLXRβ. Extract was made in a similar buffer as above, but with 50 mM TRIS.
Washed streptavidin and coated flash plates with wash buffer. Diluted receptor extract to give Bmax˜4000 cpm and add to the wells. Wrapped the plates in aluminum foil and stored them at +4° C. overnight.
Made a dilution series in DMSO of the test ligands. Made a 5 nM solution of the radioactive tracer in buffer. Mixed 250 μl diluted tracer with 5 μl of the test ligand from each concentration of the dilution series. Washed the receptor-coated flash plates. Added 200 μl per well of the ligand/radiolabel mixture to the receptor-coated flash plates. Wrapped the plates in aluminum foil and incubate at +4° C. over night.
Aspirated wells, and washed the flashed plates. Sealed the plate.
Measured the remaining radioactivity in the plate.

| IC50 [nM] | SMILES |
| --- | --- |
| > 1000 | CCS(=O)(=O)c1cccc(Oc2cccc(-c3cnc4cccc(C(F)(F)F)c4n3)c2)c1 [Example 16, 2-{3-[3-(ethylsulfonyl)phenoxy]phenyl}-8-(trifluoromethyl)quinoxaline] |
| > 1000 | Cc1nc2c(C(F)(F)F)cccc2nc1-c1cc(Oc2ccc(S(=O)(=O)CC#N)cc2)ccc1Cl [Example 41, [(4-{4-chloro-3-[3-methyl-5-(trifluoromethyl)quinoxalin-2-yl]phenoxy}phenyl)sulfonyl]-acetonitrile] |
| > 1000 | Cc1nc2c(C(F)(F)F)cccc2nc1-c1ccc(-c2cccc(C(N)=O)c2)cc1 [Example 50, 4′-[3-methyl-5-(trifluoromethyl)quinoxalin-2-yl]biphenyl-3-carboxamide] |
| > 1000 | Cc1nc2c(C(F)(F)F)cccc2nc1-c1ccc(-c2cccc(S(C)(=O)=O)c2)cc1F [Example 28, 2-[3-fluoro-3′-(methylsulfonyl)biphenyl-4-yl]-3-methyl-5-(trifluoromethyl)quinoxaline] |
| > 1000 | Cc1nc2c(C(F)(F)F)cccc2nc1-c1ccc(-c2cccc(NS(C)(=O)=O)c2)cc1 [Example 49, N-{4′-[3-methyl-5-(trifluoromethyl)quinoxalin-2-yl]biphenyl-3-yl}methanesulfonamide] |
| > 1000 | Cc1nc2c(C(F)(F)F)cccc2nc1-c1cc(Oc2cccc(S(C)(=O)=O)c2)ccc1-c1ccccc1 [Example 40, 3-methyl-2-{4-[3-(methylsulfonyl)phenoxy]biphenyl-2-yl}-5-(trifluoromethyl)quinoxaline] |
| 723 | CS(=O)(=O)c1cccc(-c2ccc(-c3nc4cccc(C(F)(F)F)c4nc3N)cc2)c1 [Example 33, 3-[3′-(methylsulfonyl)biphenyl-4-yl]-8-(trifluoromethyl)quinoxalin-2-amine] |
| > 1000 | CS(=O)(=O)Nc1cccc(-c2ccc(Oc3cnc4c(Cl)cccc4n3)cc2)c1 [Example 87, N-{4′-[(5-chloroquinoxalin-2-yl)oxy]biphenyl-3-yl}methanesulfonamide] |
| > 1000 | Cc1nc2c(C(F)(F)F)cccc2nc1-c1ccc(-c2ccc(CCC(=O)O)cc2)cc1 [Example 55, 3-{4′-[3-methyl-5-(trifluoromethyl)quinoxalin-2-yl]biphenyl-4-yl}propanoic acid] |
| > 1000 | COc1cccc2nc(C)c(-c3ccc(-c4cccc(S(C)(=O)=O)c4)cc3)nc12 [Example 69, 5-methoxy-2-methyl-3-[3′-(methylsulfonyl)biphenyl-4-yl]quinoxaline] |
| > 1000 | CC(C)CS(=O)(=O)c1cccc(Oc2cccc(-c3cnc4cccc(C(F)(F)F)c4n3)c2)c1 [Example 17, 2-{3-[3-(isobutylsulfonyl)phenoxy]phenyl}-8-(trifluoromethyl)quinoxaline] |
| > 1000 | CS(=O)(=O)c1cccc(-c2ccc(-c3cnc4c(C(F)(F)F)cccc4n3)cc2)c1 [Example 22, 2-[3′-(methylsulfonyl)biphenyl-4-yl]-5-(trifluoromethyl)quinoxaline] |
| > 1000 | Cc1nc2c(C(F)(F)F)cccc2nc1-c1cccc(-c2ccc(S(C)(=O)=O)cc2)c1 [Example 20, 3-methyl-2-[4′-(methylsulfonyl)biphenyl-3-yl]-5-(trifluoromethyl)quinoxaline] |
| > 1000 | CS(=O)(=O)c1cccc(Oc2cccc(-c3cnc4cccc(Cl)c4n3)c2)c1 [Example 13, 8-chloro-2-{3-[3-(methylsulfonyl)phenoxy]phenyl}quinoxaline] |
| 257 | CS(=O)(=O)Nc1cccc(-c2cccc(Oc3cnc4c(Cl)cccc4n3)c2)c1 [Example 85, N-{3′-[(5-Chloroquinoxalin-2-yl)oxy]biphenyl-3-yl}methanesulfonamide] |
| > 1000 | CCS(=O)(=O)c1cccc(Oc2ccc(-c3nc4c(C(F)(F)F)cccc4nc3C)cc2)c1 [Example 15, 3-{4-[3-(ethylsulfonyl)phenoxy]phenyl}-2-methyl-5-(trifluoromethyl)quinoxaline] |
| 99.5 | Cc1nc2c(Cl)ccc(Cl)c2nc1-c1ccc(-c2cccc(S(C)(=O)=O)c2)cc1 [Example 35, 5,8-dichloro-2-methyl-3-[3′-(methylsulfonyl)biphenyl-4-yl]quinoxaline] |
| > 1000 | Cc1nc2c(Cl)cccc2nc1Oc1cccc(-c2cccc(S(N)(=O)=O)c2)c1 [Example 89, 3′-[(5-chloro-3-methylquinoxalin-2-yl)oxy]biphenyl-3-sulfonamide] |
| > 1000 | CS(=O)(=O)c1cccc(Oc2cccc(-c3cnc4c(C(F)(F)F)cccc4n3)c2)c1 [Example 14, 2-{3-[3-(methylsulfonyl)phenoxy]phenyl}-5-(trifluoromethyl)quinoxaline] |
| 1090 | CNS(=O)(=O)c1cccc(-c2ccc(-c3nc4c(C(F)(F)F)cccc4nc3C)cc2)c1 [Example 48, N-methyl-4′-[3-methyl-8-(trifluoromethyl)quinoxalin-2-yl]biphenyl-3-sulfonamide] |
| > 1000 | Cc1nc2c(C(F)(F)F)cccc2nc1-c1ccc(Oc2cccc(S(C)(=O)=O)c2)cc1F [Example 30, 2-{2-fluoro-4-[3-(methylsulfonyl)phenoxy]phenyl}-3-methyl-5-(trifluoromethyl)quinoxaline] |
| > 1000 | Cc1nc2cccc(C(F)(F)F)c2nc1-c1cc(Oc2ccc(S(C)(=O)=O)cc2)ccc1Cl [Example 39, 3-{2-chloro-5-[4-(methylsulfonyl)phenoxy]phenyl}-2-methyl-5-(trifluoromethyl)quinoxaline] |
| > 1000 | CNS(=O)(=O)c1cccc(-c2ccc(Oc3cnc4c(Cl)cccc4n3)cc2)c1 [Example 86, 4′-[(5-Chloroquinoxalin-2-yl)oxy]-N-methylbiphenyl-3-sulfonamide] |
| > 1000 | Cc1nc2cccc(C(F)(F)F)c2nc1-c1ccc(-c2cccc(NS(C)(=O)=O)c2)cc1 [Example 47, N-{4′-[3-methyl-8-(trifluoromethyl)quinoxalin-2-yl]biphenyl-3-yl}methanesulfonamide] |
| > 1000 | CS(=O)(=O)c1ccccc1-c1ccc(-c2cnc3cccc(C(F)(F)F)c3n2)cc1 [Example 24, 2-[2′-(methylsulfonyl)biphenyl-4-yl]-8-(trifluoromethyl)quinoxaline] |
| 933 | CNS(=O)(=O)c1cccc(-c2ccc(Oc3nc4cccc(Cl)c4nc3C)cc2)c1 [Example 91, 4′-[(5-chloro-3-methylquinoxalin-2-yl)oxy]-N-methylbiphenyl-3-sulfonamide] |
| > 1000 | CS(=O)(=O)c1cccc(-c2ccc(-c3nc4ccccc4nc3C(F)(F)F)cc2)c1 [Example 26, 2-[3′-(methylsulfonyl)biphenyl-4-yl]-3-(trifluoromethyl)quinoxaline] |
| > 1000 | CC(=O)Nc1cccc(-c2ccc(-c3nc4cccc(C(F)(F)F)c4nc3C)cc2)c1 [Example 51, N-{4′-[3-methyl-5-(trifluoromethyl)quinoxalin-2-yl]biphenyl-3-yl}acetamide] |
| > 1000 | CNS(=O)(=O)c1cccc(-c2cccc(Oc3nc4cccc(Cl)c4nc3C)c2)c1 [Example 88, 3′-[(5-chloro-3-methylquinoxalin-2-yl)oxy]-N-methylbiphenyl-3-sulfonamide] |
| > 1000 | CS(=O)(=O)c1ccc(-c2ccc(-c3cnc4cccc(C(F)(F)F)c4n3)cc2)cc1 [Example 23, 2-[4′-(methylsulfonyl)biphenyl-4-yl]-8-(trifluoromethyl)quinoxaline] |
